Drawing on ChEMBL document CHEMBL3639203, “Macrocyclic indoles as hepatitis C virus inhibitors” (2013), this text covers IC50 for 1 molecule.

Usually IC50 stands for the concentration that inhibits the measured activity by half. Read a low IC50 as higher potency.

The target of this experiment is Genome polyprotein (Hepatitis C virus genotype 1b (strain HC-J4) (HCV), UniProt O92972). Put plainly: Inhibition Assay: Inhibition assay using HCV NS5B.
Sequence of Genome polyprotein (O92972 2420-3010 limits assumed): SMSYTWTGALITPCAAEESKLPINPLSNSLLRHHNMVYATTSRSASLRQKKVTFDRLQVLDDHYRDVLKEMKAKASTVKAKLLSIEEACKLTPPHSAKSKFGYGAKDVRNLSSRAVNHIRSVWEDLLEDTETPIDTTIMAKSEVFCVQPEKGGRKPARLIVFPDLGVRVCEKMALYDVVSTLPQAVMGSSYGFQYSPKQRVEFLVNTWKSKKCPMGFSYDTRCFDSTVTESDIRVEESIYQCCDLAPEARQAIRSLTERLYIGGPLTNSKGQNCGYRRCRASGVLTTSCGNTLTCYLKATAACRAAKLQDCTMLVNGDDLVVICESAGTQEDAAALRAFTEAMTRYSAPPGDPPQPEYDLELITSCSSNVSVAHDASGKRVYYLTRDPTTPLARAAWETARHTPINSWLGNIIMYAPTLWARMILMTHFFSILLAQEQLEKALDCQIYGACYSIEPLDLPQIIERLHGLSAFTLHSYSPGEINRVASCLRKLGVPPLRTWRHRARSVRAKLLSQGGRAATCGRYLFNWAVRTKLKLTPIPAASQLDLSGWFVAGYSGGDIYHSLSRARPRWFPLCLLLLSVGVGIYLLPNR

As for `CN1C/C=C\CCNC(=O)Cn2c(-c3ccc(Cl)cc3)c(C3CCCCC3)c3ccc(cc32)C(=O)NS1(=O)=O`, the IC50 was determined as 170 nM.
